The results in this text go back to US12202835B2, “Substituted aromatic ring-linked dioxinoquinazolines and dioxinoquinolines as kinase inhibitors” (BEIJING SCITECH-MQ PHARMACEUTICALS LIMITED, priority 2018, dated 2025).

Structures are written as SMILES. A value given as a limit tells only on which side of the number the result lay.

For assay [1], the system named is Ba/F3 LMNA-NTRK1-G595R cells. As to the kind of experiment: Assay for inhibiting the proliferation of Ba/F3 LMNA-NTRK1-G595R cells (CCK-8). The conditions noted are these: Mus musculus, BaF3. Format: cell-based. In a few lines:
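Cells seeded in 96-well plates overnight, then exposed 72 h to 9 three-fold dilutions of compound (0.25% DMSO final). Viability by CCK-8 (1-2 h at 37° C., OD 450 nm), survival normalized to untreated and cell-free blanks; IC50 by curve fitting.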

Another assay concerns Ba/F3 LMNA-NTRK1 cells. The experiment in a line: Assay for inhibiting the proliferation of Ba/F3 LMNA-NTRK1 cells (CCK-8). The conditions noted are these: Mus musculus, BaF3. In kind it is cell-based. In outline:
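Viability was read as absorbance at 450 nm following 1–2 h CCK-8 incubation at 37 °C, relative to control and blank wells.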

In the case of `CC(C)n1cc(C(=O)Nc2ccc(Oc3ccnc4cc(OCCO)c5c(c34)OCCO5)c(F)c2)c(=O)n(-c2ccc(F)cc2)c1=O` [Example 78, N-(3-fluoro-4-((5-(2-hydroxyethoxy)-2,3-dihydro-[1,4]dioxino[2,3-f]quinolin-10-yl)oxy)phenyl)-3-(4-fluorophenyl)-1-isopropyl-2,4-dioxo-1,2,3,4-tetrahydropyrimidine-5-carboxamide], the results for the IC50 (in assay [1]; in the assay on Ba/F3 LMNA-NTRK1 cells) were 50 to 200 nM and under 50 nM, respectively. The like results for `CCn1cc(C(=O)Nc2ccc(Oc3ccnc4cc(OCCOC)c5c(c34)OCCO5)c(F)c2)c(=O)n(-c2ccc(F)cc2)c1=O` [Example 44, N-(3-fluoro-4-((5-(2-methoxyethoxy)-2,3-dihydro-[1,4]dioxino[2,3-f]quinolin-10-yl)oxy)phenyl)-3-(4-fluorophenyl)-1-ethyl-2,4-dioxo-1,2,3,4-tetrahydropyrimidine-5-carboxamide] were, in that order, at most 50 nM and under 50 nM. Turning to `COCCn1cc(C(=O)Nc2ccc(Oc3ccnc4cc(OC)c5c(c34)OCCO5)c(F)c2)c(=O)n(-c2ccc(F)cc2)c1=O` [Example 46, N-(3-fluoro-4-((5-methoxy-2,3-dihydro-[1,4]dioxino[2,3-f]quinolin-10-yl)oxy)phenyl)-3-(4-fluorophenyl)-1-(2-methoxyethyl)-2,4-dioxo-1,2,3,4-tetrahydropyrimidine-5-carboxamide], the IC50 was 50 to 200 nM in assay [1] and under 50 nM with Ba/F3 LMNA-NTRK1 cells. As for `CC(C)n1cc(C(=O)Nc2ccc(Oc3ccnc4cc(OCCCO)c5c(c34)OCCO5)c(F)c2)c(=O)n(-c2ccc(F)cc2)c1=O` [Example 79, N-(3-fluoro-4-((5-(3-hydroxypropoxy)-2,3-dihydro-[1,4]dioxino[2,3-f]quinolin-10-yl)oxy)phenyl)-3-(4-fluorophenyl)-1-isopropyl-2,4-dioxo-1,2,3,4-tetrahydropyrimidine-5-carboxamide], the IC50 is 50 to 200 nM in assay [1] and under 50 nM with Ba/F3 LMNA-NTRK1 cells. For `Cn1cc(C(=O)Nc2ccc(Oc3ccnc4cc(OC5CCOC5)c5c(c34)OCCO5)c(F)c2)c(=O)n(-c2ccc(F)cc2)c1=O` (stereo not drawn) [Example 90, N-(3-fluoro-4-((5-((tetrahydrofuran-3-yl)oxy)-2,3-dihydro-[1,4]dioxino[2,3-f]quinolin-10-yl)oxy)phenyl)-3-(4-fluorophenyl)-1-methyl-2,4-dioxo-1,2,3,4-tetrahydropyrimidine-5-carboxamide], in that order: 50 to 200 nM and under 50 nM. Turning to `COCCOc1cc2nccc(Oc3ccc(NC(=O)c4cn(C(C)C)c(=O)n(-c5ccc(F)cc5)c4=O)cc3F)c2c2c1OCCO2` [Example 43, N-(3-fluoro-4-((5-(2-methoxyethoxy)-2,3-dihydro-[1,4]dioxino[2,3-f]quinolin-10-yl)oxy)phenyl)-3-(4-fluorophenyl)-1-isopropyl-2,4-dioxo-1,2,3,4-tetrahydropyrimidine-5-carboxamide], the results for the IC50 (in assay [1]; in the assay with Ba/F3 LMNA-NTRK1 cells) were 50 to 200 nM and under 50 nM, respectively. In the case of `CN1CCN(CCCOc2cc3nccc(Oc4ccc(NC(=O)c5cn(C)c(=O)n(-c6ccc(F)cc6)c5=O)cc4F)c3c3c2OCCO3)CC1` [Example 74, N-(3-fluoro-4-((5-(3-(4-methylpiperazin-1-yl)propoxy)-2,3-dihydro-[1,4]dioxino[2,3-f]quinolin-10-yl)oxy)phenyl)-3-(4-fluorophenyl)-1-methyl-2,4-dioxo-1,2,3,4-tetrahydropyrimidine-5-carboxamide], the IC50 was 200 to 1000 nM in assay [1] and under 50 nM in the assay on Ba/F3 LMNA-NTRK1 cells. Consider `CCOc1ccn(-c2ccc(F)cc2)c(=O)c1C(=O)Nc1ccc(Oc2ccnc3cc(OCCCOC)c4c(c23)OCCO4)c(F)c1` [Example 55, N-(4-((5-(3-methoxypropoxy)-2,3-dihydro-[1,4]dioxino[2,3-f]quinolin-10-yl)oxy)-3-fluorophenyl)-4-ethoxy-1-(4-fluorophenyl)-2-oxo-1,2-dihydropyridine-3-carboxamide], for which the IC50 with Ba/F3 LMNA-NTRK1 cells is under 50 nM. Turning to `CC(=O)N1CCN(CCCOc2cc3nccc(Oc4ccc(NC(=O)c5cn(C(C)C)c(=O)n(-c6ccc(F)cc6)c5=O)cc4F)c3c3c2OCCO3)CC1` [Example 75, N-(3-fluoro-4-((5-(3-(4-acetylpiperazin-1-yl)propoxy)-2,3-dihydro-[1,4]dioxino[2,3-f]quinolin-10-yl)oxy)phenyl)-3-(4-fluorophenyl)-1-isopropyl-2,4-dioxo-1,2,3,4-tetrahydropyrimidine-5-carboxamide], the IC50 in assay [1] was 200 to 1000 nM; in the assay with Ba/F3 LMNA-NTRK1 cells, under 50 nM. The like results for `CC(C)n1cc(C(=O)Nc2ccc(Oc3ccnc4cc(OCCCN5CCCC5)c5c(c34)OCCO5)c(F)c2)c(=O)n(-c2ccc(F)cc2)c1=O` [Example 77, N-(3-fluoro-4-((5-(3-(pyrrolidin-1-yl)propoxy)-2,3-dihydro-[1,4]dioxino[2,3-f]quinolin-10-yl)oxy)phenyl)-3-(4-fluorophenyl)-1-isopropyl-2,4-dioxo-1,2,3,4-tetrahydropyrimidine-5-carboxamide] were, in that order, 200 to 1000 nM and under 50 nM. The compound `CCOc1ccn(-c2ccc(F)cc2)c(=O)c1C(=O)Nc1ccc(Oc2ccnc3cc(OCCCN4CCCC4)c4c(c23)OCCO4)c(F)c1` [Example 52, N-(4-((5-(3-(pyrrolidin-1-yl)propoxy)-2,3-dihydro-[1,4]dioxino[2,3-f]quinolin-10-yl)oxy)-3-fluorophenyl)-4-ethoxy-1-(4-fluorophenyl)-2-oxo-1,2-dihydropyridine-3-carboxamide] came in with an IC50 in the assay on Ba/F3 LMNA-NTRK1 cells of under 50 nM.

In the assay with Ba/F3 LMNA-NTRK1 cells, `CCOc1ccn(-c2ccc(F)cc2)c(=O)c1C(=O)Nc1ccc(Oc2ccnc3cc(OCCCO)c4c(c23)OCCO4)c(F)c1` [Example 54, N-(4-((5-(3-hydroxypropoxy)-2,3-dihydro-[1,4]dioxino[2,3-f]quinolin-10-yl)oxy)-3-fluorophenyl)-4-ethoxy-1-(4-fluorophenyl)-2-oxo-1,2-dihydropyridine-3-carboxamide] came in with an IC50 of under 50 nM.
